Where two headings read alike, the source gives them in different places.
How the values were obtained:
[1] = n=3
[2] = Stability in rat intestinal; type: in vitro ADME; settings: rat intestinal perfusate, similar conditions, control compound
[3] = isotonic buffer pH 1.2, 37°C, * = estimated half lives
[4] = isotonic buffer pH 4.0, 37°C, * = estimated half lives
[5] = isotonic buffer pH 6.0, 37°C, * = estimated half lives

CC(OC(=O)c1ccccc1)OC(=O)[C@@H](N)Cc1ccccc1 (stereo partly drawn) [BA-Et-Phe, 1-((S)-2-amino-3-phenylpropanoyloxy) ethyl benzoate]
Half lives, t1/2 [1, 3]: 1732 min
Half lives, t1/2 [1, 4]: 3465 ^* min
Half lives, t1/2 [1, 5]: 385 ± 19 min
Half lives, t1/2 ([1]; isotonic buffer pH 7.4, 37°C): 24 ± 2 min

NC(Cc1ccccc1)C(=O)OCOC(=O)c1ccccc1 (stereo not drawn) [BA-Me-Phe, (2-amino-3-phenylpropanoyloxy) methyl benzoate]
Half lives, t1/2 [1, 3]: 193 min
Half lives, t1/2 [1, 4]: 385 min
Half lives, t1/2 [1, 5]: 2.1 min

CC(OC(=O)Cc1ccccc1)OC(=O)C(N)C(C)C (stereo not drawn) [PA-Et-Val, 1-(2-phenylacetoxy) ethyl 2-amino-3-methylbutanoate]
Half lives, t1/2 [1, 3]: 11550 ^* min
Half lives, t1/2 [1, 4]: 23100 ^* min
Half lives, t1/2 [1, 5]: 1732.5 min
Half lives, t1/2 ([1]; isotonic buffer pH 7.4, 37°C): 50 ± 14.8 min

CC(C)C[C@H](NC(=O)[C@H](Cc1ccccc1)NC(=O)CNC(=O)CNC(=O)[C@@H](N)Cc1ccc(O)cc1)C(=O)O [leu-enkephalin]
time to complete hydrolysis [2]: ≤ 1 h
